Source: US8481572B2, “Pharmaceutical compositions and methods for the treatment of cancer” (Urifer Ltd., priority 2007, dated 2013)
pEC50, pIC50: −log10 of the molar value. Like-named read-outs stand apart in the source and are kept apart here.

Experiments:
Type in all cases: cell-based
[1] = tested on: HCT116 human colorectal carcinoma cells; assay: XTT test, number of viable cells, HCT116
Experimental: (§1) The effect of the four compounds 497, 631, 115 and 540 on the growth profile of cancer cells which express Fer was tested. The cells that were tested were: the colon cancer cell lines HT29 and HCT 116, the breast cancer cell lines MDA-MB-231 and MCF-7, and the prostate cancer cell lines PC3 and DU145. The effect of each of the four compounds on FS11 cells, a non malignant fibroblastic cell line, was also studied.
(§2) The cells were seeded in 96 wells microplates and were left to grow untreated overnight. Each of the […] compounds was dissolved in DMSO and was then added to each well in a dose dependent manner from 0.4 to 80 μM. The concentration of DMSO in each well was 0.4% v/v. Untreated cells and cells subjected to 0.4% DMSO alone, served as controls. The number of viable cells in each well was determined 48, 72, 96 hours after compounds addition, using the XTT test (Berridge, M. V. et al, 2005).
(§3) The effect of compound E626-0342 on the growth profile of cancer cells which express Fer was tested. The compound was added to the growth media of FS11-normal primary human fibroblasts and to two colon cancer cell lines, HCT116 and HT29, which express Fer.
(§4) Various cell lines were seeded in 96 wells microplates and were left to grow untreated overnight. Compound E626-0342, dissolved in DMSO at a stock concentration of 10 mM was then added to each well in a dose dependent manner, resulting in final concentrations extending from 0.5 to 15 μM. The final concentration of DMSO in each well was 1% v/v. Untreated cells and cells subjected to 1% DMSO alone, served as controls. The number of viable cells in each well was determined 96 hours after addition of the compound, using the XTT test (Berridge, M. V. et al, 2005).

[2] = tested on: MCF-7 breast cancer cell line; assay: XTT test, number of viable cells, MCF-7; details: Homo sapiens, MCF7, concentrations tested up to 80 μM
Experimental: as §1, §2

[3] = tested on: HT29 human colorectal carcinoma cells; assay: XTT test, number of viable cells, HT29
Experimental: as §1, §2, §3, §4

[4] = tested on: FS11 human fibroblastic cells; assay: XTT test, number of viable cells, FS11 non-malignant fibroblasts; details: for pEC50: Homo sapiens, Fibroblast, XTT test, concentrations tested up to 80 μM
Experimental: as §1, §2, §3, §4

[5] = tested on: MDA-MB-231 breast cancer cell line; assay: XTT test, number of viable cells, MDA-MB-231; details: Homo sapiens, concentrations tested up to 80 μM
Experimental: as §1, §2

[6] = tested on: PC3 prostate cancer cell line; assay: XTT test, number of viable cells, PC3; details: concentrations tested up to 80 μM
Experimental: as §1, §2

[7] = tested on: DU145 prostate cancer cell line; assay: XTT test, number of viable cells, DU145; details: Homo sapiens, DU-145, concentrations tested up to 80 μM
Experimental: as §1, §2

[8] = molecular target: T1, murine Fer (Mus musculus, UniProt P70451); assay: Fer tyrosine phosphorylation in yeast cells expressing ectopic Fer (western blot); details: 40 μM for 48 h
T1 construct: expressed in transfected cells; host or cells: S. cerevisiae yeast cells harboring plasmid pAES-Fer
T1 sequence (P70451 whole entry): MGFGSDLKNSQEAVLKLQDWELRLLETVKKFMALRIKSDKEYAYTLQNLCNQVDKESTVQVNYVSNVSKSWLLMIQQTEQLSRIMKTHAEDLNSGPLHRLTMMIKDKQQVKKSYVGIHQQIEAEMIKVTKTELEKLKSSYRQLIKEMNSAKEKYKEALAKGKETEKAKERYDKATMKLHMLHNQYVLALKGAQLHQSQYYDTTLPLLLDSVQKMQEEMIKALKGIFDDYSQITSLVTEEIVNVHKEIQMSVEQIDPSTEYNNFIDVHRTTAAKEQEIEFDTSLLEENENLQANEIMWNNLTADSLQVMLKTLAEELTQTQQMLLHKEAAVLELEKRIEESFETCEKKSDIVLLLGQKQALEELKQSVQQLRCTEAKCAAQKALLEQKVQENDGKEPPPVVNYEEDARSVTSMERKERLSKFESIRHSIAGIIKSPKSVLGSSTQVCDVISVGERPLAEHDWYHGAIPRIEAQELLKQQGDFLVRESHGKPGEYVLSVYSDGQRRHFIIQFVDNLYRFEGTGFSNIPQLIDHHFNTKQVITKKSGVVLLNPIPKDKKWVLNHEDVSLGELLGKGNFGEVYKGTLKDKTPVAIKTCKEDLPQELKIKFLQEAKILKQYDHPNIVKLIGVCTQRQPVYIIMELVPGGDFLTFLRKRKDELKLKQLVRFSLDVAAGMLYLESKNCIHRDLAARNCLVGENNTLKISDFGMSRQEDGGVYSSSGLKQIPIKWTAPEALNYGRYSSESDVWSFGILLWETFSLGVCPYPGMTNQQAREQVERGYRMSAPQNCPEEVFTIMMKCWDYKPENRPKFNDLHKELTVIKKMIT
Experimental: To examine whether the above listed compounds affect the enzymatic activity of Fer, the protein tyrosine phosphorylation profile in yeast cells which ectopically express the murine Fer, was analyzed using the yeast system disclosed in WO2007/107991. Since the S. cerevisae yeast cells lack almost completely detectable, endogenous, tyrosine phosphorylation activity, the detected tyrosine phosphorylation signals result essentially from the kinase activity of the ectopic Fer. Furthermore, considering the negligible tyrosine-phosphorylation background in the cells, it is possible to specifically track the tyrosine phosphorylation level of Fer in the treated yeast cells.
Yeast cells expressing an ectopic Fer were treated with 40 μM of one of the compounds 497, 631, 115 and 540 for 48 h. […] The expression levels of Fer and the tyrosine phosphorylation profiles of the proteins before and after treatment with the compounds were determined using a western-blot analysis. […]
To examine whether E626-0342 affects the enzymatic activity of Fer, the protein tyrosine phosphorylation profile in yeast cells which ectopically express the murine Fer, was analyzed. Since the S. cerevisae yeast cells lack almost completely detectable, endogenous, tyrosine phosphorylation activity, the detected tyrosine phosphorylation signals result essentially from the kinase activity of the ectopic Fer. […]

[9] = HCT-116, XTT test, concentrations tested up to 80 μM, read-out: EC50 on HCT116
[10] = HT-29, XTT test, concentrations tested up to 80 μM, read-out: EC50 on HT29

| pEC50 [1, 9] | pEC50 [2] | pEC50 [3, 10] | pEC50 [5] | pIC50 ([1]; HCT-116, after 96 h, read-out: IC50, reduction in number of viable cells, HCT116) | pEC50 [6] | pEC50 [7] | pIC50 ([3]; HT-29, after 96 h, read-out: IC50, reduction in number of viable cells, HT29) | tyrosine phosphorylation level of the Fer protein band (Fer autophosphorylation) [8] | pEC50 ([1]; HCT-116, 0.4% DMSO, 0.4 to 80 μM, read-out: EC50, decrease in cell viability, HCT116) | pEC50 ([3]; HT-29, 0.4% DMSO, 0.4 to 80 μM, read-out: EC50, decrease in cell viability, HT29) | SMILES | pEC50 [4] | effect on FS11 cells ([4]; up to a concentration of 80 μM) |
| --- | --- | --- | --- | --- | --- | --- | --- | --- | --- | --- | --- | --- | --- |
| 4.49 | 5.10 | 4.49 | 4.40 | – | – | – | – | – | – | – | Cc1ccn2cc(-c3ccc(F)cc3)cc2c1 [Compound 115] | < 4.10 | – |
| 5.70 | 5.10 | 5.70 | 5.70 | 5.70 | 5.40 | 5.10 | 5.70 | significant reduction | – | – | Nc1cc(-c2ccc(Cl)cc2)nn1S(=O)(=O)c1c(F)c(F)c(F)c(F)c1F [Compound 497] | 5.40 | – |
| 4.62 | – | 4.52 | 4.49 | – | 4.49 | – | – | significant reduction | 4.62 | 4.40 | CC(C)c1nn2cc(-c3ccc(F)cc3)nc2s1 [Compound 631] | – | did not affect |
